The source made the active and inactive calls. The rule behind the calls is not given here.
What was measured:
Type in all cases: functional
[1] = Antioxidant activity assessed as inhibition of Cu2+/GSH-induced oxidation of DNA at 0.2 mM measured every 30 mins by TBARS assay
[2] = Antioxidant activity assessed as inhibition of AAPH-induced oxidation of DNA at 1 to 400 uM measured every 2 hrs by TBARS assay
[3] = Antioxidant activity assessed as inhibition of hydroxyl radical-induced oxidation of DNA at 0.2 mM after 30 mins by TBARS assay relative to control
[4] = Antioxidant activity assessed as galvinoxyl radical scavenging activity at 15 uM
[5] = test system: Radical scavenging activity; assay: Antioxidant activity assessed as DPPH radical scavenging activity at 10 uM
[6] = Antioxidant activity assessed as time required to inhibit AAPH-induced oxidation of DNA by TBARS assay
[7] = Antioxidant activity assessed as ABTS radical scavenging activity at 5 uM

| SMILES | inhibition [1] | inhibition [2] | inhibition [3] [%] | K [4] [M⁻¹ s⁻¹] | K [5] [M⁻¹ s⁻¹] | TIME [6] [h] | K [7] [M⁻¹ s⁻¹] |
| --- | --- | --- | --- | --- | --- | --- | --- |
| O=c1oc2ccccc2cc1C1=NN(c2ccccc2)C(c2ccccc2)C1 (stereo not drawn) | Active | inactive | 67.8 | – | – | – | – |
| O=c1oc2ccccc2cc1C1=NN(c2ccccc2)C(c2ccccc2O)C1 (stereo not drawn) | – | – | 44.2 | 4350 | 540 | 0.0192 | 7440 |
| COc1ccc(C2CC(c3cc4ccccc4oc3=O)=NN2c2ccccc2)cc1 (stereo not drawn) | Active | inactive | 75.3 | – | – | – | – |
| O=c1oc2ccccc2cc1C1=NN(c2ccccc2)C(c2ccc(O)cc2O)C1 (stereo not drawn) | Active | – | 35.5 | 7900 | 3720 | 0.0343 | 24600 |
| COc1cc(C2CC(c3cc4ccccc4oc3=O)=NN2c2ccccc2)ccc1O (stereo not drawn) | – | – | 53.9 | 6740 | 2540 | 0.0313 | 5990 |
| O=c1oc2ccccc2cc1C1=NN(c2ccccc2)C(c2cccc(O)c2)C1 (stereo not drawn) | – | – | 66.4 | 7230 | 700 | 0.016 | 4310 |
| O=c1oc2ccccc2cc1C1=NN(c2ccccc2)C(c2ccc(O)c(O)c2)C1 (stereo not drawn) | Active | – | 43.4 | 6920 | 8830 | 0.0327 | 12900 |
| O=c1oc2ccccc2cc1C1=NN(c2ccccc2)C(c2ccc(O)cc2)C1 (stereo not drawn) | – | – | 81.1 | 5820 | 2440 | 0.0173 | 11200 |

Reference: ChEMBL document CHEMBL2429798, “Antioxidant effectiveness generated by one or two phenolic hydroxyl groups in coumarin-substituted dihydropyrazoles” (Eur J Med Chem, 2013)
